From patent US20170066759A1, “AROMATIC 5-MEMBERED HETEROCYCLIC DERIVATIVE HAVING TRPV4-INHIBITING ACTIVITY” (Shionogi & Co., Ltd., priority 2012, published 2017)

Columns and labels:
[1] = Test Example 11: BA test (oral absorbability); format: in vivo; settings: plasma; Mouse, oral administration 1 mg/kg
Method: Materials and methods for experiments to evaluate oral absorbability
(1) Experimental animals: rats or mice were used. (2) Breeding condition: rats or mice were allowed free access to solid feed and sterilized tap water (3) Setting of dosage and grouping: Oral administration and intravenous administration were performed with the predetermined dosage. Grouping was set as below. (Dosage varied depending on each compound)
Oral administration 1 to 30 mg/kg (n=2 to 3)
Intravenous administration 0.5 to 10 mg/kg (n=2 to 3)
(4) Preparation of administered liquid: Oral administration was performed using a solution or a suspension. Intravenous administration was performed after solubilization. (5) Method of Administration: In oral administration, compulsory administration to the stomach was conducted using an oral sonde. […] (6) Evaluation items: Blood was chronologically collected, and then concentration of a compound of the present invention in blood plasma was measured using a LC/MS/MS. […]
(7) Statistical analysis: With regard to a shift in plasma concentration of the compound of the present invention, the area under the plasma concentration-time curve (AUC) was calculated using a nonlinear least-squares program, WinNonlin (a registered trademark). Bioavailability (BA) was calculated from the AUCs of the oral administration group and the intravenous administration group. […]

[2] = biological target: T1, human TRPV4 (hTRPV4/CHO cells) (Homo sapiens, UniProt Q9HBA0); assay: Test Example 1: TRPV4 inhibitory activity (IC50 value), 4α-PDD stimulation, Fluo4 calcium fluorescence (FLIPR TETRA); format: cell-based; settings: Test Example 1, 4α-PDD stimulation, read-out: Test 1 IC50
T1 construct: expressed in transfected cells; host or cells: CHO-K1
T1 sequence (Q9HBA0 whole entry): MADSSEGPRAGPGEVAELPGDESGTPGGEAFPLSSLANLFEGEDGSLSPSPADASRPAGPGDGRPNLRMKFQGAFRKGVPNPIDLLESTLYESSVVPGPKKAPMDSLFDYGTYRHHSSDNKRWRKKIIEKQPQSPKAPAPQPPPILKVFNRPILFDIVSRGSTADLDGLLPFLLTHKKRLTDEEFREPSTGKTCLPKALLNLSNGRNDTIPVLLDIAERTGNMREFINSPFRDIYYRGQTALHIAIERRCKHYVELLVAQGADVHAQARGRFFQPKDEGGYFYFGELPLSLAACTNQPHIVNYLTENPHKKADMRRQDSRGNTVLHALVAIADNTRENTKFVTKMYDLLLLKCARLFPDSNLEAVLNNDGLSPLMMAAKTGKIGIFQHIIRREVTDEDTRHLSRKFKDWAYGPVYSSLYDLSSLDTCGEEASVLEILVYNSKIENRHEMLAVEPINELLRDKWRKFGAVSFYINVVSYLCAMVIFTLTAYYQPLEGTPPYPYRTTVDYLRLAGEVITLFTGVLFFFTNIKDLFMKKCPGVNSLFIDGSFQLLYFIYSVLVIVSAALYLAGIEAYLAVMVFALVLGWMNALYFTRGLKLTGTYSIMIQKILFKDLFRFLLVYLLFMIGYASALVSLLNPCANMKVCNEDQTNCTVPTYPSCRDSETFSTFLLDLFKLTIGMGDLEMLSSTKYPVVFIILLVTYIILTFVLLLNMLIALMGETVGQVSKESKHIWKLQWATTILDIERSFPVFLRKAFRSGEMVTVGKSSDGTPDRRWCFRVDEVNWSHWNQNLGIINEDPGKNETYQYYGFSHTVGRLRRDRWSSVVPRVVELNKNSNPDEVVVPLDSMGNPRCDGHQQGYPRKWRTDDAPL

[3] = biological target: T2, CYP3A4 enzyme expressed in Escherichia coli (Homo sapiens, UniProt P08684); assay: Test Example 5: CYP3A4 fluorescent MBI test; format: in vitro ADME; settings: substrate 7-BFC, pre-reaction 30 minutes, compound 0.625-20 μmol/L
T2 construct: host or cells: Escherichia coli
T2 sequence (P08684 whole entry): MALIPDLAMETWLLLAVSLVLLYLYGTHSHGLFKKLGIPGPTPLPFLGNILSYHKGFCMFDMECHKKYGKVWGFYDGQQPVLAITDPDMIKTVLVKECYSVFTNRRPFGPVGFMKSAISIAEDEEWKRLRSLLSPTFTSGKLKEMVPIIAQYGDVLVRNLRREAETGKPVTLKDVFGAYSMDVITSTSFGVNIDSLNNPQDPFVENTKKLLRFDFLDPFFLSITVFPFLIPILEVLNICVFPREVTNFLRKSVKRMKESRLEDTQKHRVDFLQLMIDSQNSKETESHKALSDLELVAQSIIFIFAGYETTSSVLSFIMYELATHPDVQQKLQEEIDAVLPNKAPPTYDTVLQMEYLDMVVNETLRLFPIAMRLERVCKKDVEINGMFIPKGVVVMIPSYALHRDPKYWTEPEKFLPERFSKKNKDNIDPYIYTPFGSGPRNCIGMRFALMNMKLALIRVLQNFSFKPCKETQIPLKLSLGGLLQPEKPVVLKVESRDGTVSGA
Method: CYP3A4 Fluorescent MBI Test
The CYP3A4 fluorescent MBI test is a test of investigating enhancement of CYP3A4 inhibition of a compound of the present invention by a metabolism reaction, and the test was performed using, as CYP3A4 enzyme expressed in Esherichia coli and employing, as an index, a reaction in which 7-benzyloxytrifluoromethylchmarin (7-BFC) is debenzylated by the CYP3A4 enzyme to produce a metabolite, 7-hydroxytrifluoromethylchmarin (HFC) emitting fluorescent light.
The reaction conditions were as follows: substrate, 5.6 μmol/L 7-BFC; pre-reaction time, […] or 30 minutes; reaction time, 15 minutes; reaction temperature, 25° C. […]
An enzyme in a K-Pi buffer (pH 7.4) and a solution of the compound of the present invention as a pre-reaction solution were added to a 96-well plate at the above composition of the pre-reaction. […] For the plate on which each index reaction had been performed, a fluorescent value of 7-HFC which is a metabolite was measured with a fluorescent plate reader. […]
Addition of only DMSO which is a solvent dissolving the compound of the present invention to a reaction system was adopted as a control (100%). Remaining activity (%) was calculated at each concentration of the compound of the present invention added as the solution, and IC50 was calculated by reverse-presumption by a logistic model using a concentration and an inhibition rate. […]

[4] = test system: Salmonella typhimurium TA98 strain, TA100 strain; assay: Test Example 7: FAT test (mutagenicity); set-up: key: (−) means that mutagenicity is negative; (+) is positive; settings: TA98 and TA100 strains, non-metabolism activating and metabolism activating conditions
Method: Mutagenicity of a compound of the present invention was evaluated.
[…] of freezing-stored rat typhoid bacillus (Salmonella typhimurium TA98 strain, TA100 strain) was inoculated on 10 mL of a liquid nutrient medium (2.5% Oxoid nutrient broth No. 2), and this was cultured before shaking at 37° C. for 10 hours. 9 mL of a bacterial solution of the TA98 strain was centrifuged (2000×g, 10 minutes) to remove a culturing solution. The bacteria was suspended in 9 mL of a Micro F buffer (K2HPO4: 3.5 g/L, KH2PO4: 1 g/L, (NH4)2SO4: 1 g/L, trisodium citrate dehydrate: 0.25 g/L, MgSO4*7H2O: 0.1 g/L), the suspension was added to 110 mL of an Exposure medium (Micro F buffer containing Biotin: 8 μg/mL, histidine: 0.2 μg/mL, glucose: 8 mg/mL). The TA100 strain was added to 120 mL of the Exposure medium relative to 3.16 mL of the bacterial solution to prepare a test bacterial solution. […] Since a well containing a bacterium which has obtained the proliferation ability by mutation of an amino acid (histidine) synthesizing enzyme gene turns from purple to yellow due to a pH change, the bacterium proliferation well which has turned to yellow in 48 wells per dose was counted, and was assessed by comparing with a negative control group. […]

Which results are given for `Cc1nc(CO)sc1-c1csc(NC(=O)Cn2cc(Cl)cn2)n1` [Compound I-131]?
bioavailability [1]: 61.4%; IC50 [2]: 100 to 1000 nM; CYP3A4 fluorescent MBI test: difference between IC50 values without and with preincubation [3]: (−) (when the difference is 3 μM or less, this was defined as (−)); Mutagenicity (FAT test) [4]: (−)
